Results from ChEMBL document CHEMBL3797030, “Anti-hepatitis C Virus Natural Product from a Fungus, Penicillium herquei” (J Nat Prod, 2016).

test system: Hepatitis C virus; assay: Antiviral activity against Hepatitis C virus J6/JFH1 infected in human Huh7.5.1 cells assessed as reduction in amount of core HCV protein after 72 hrs by focus formation assay; assay type: functional, organism-based, Hepacivirus hominis; conditions: J6/JFH1, Huh-7, 72 h

SMILES | IC50
C[C@H]1CCN2CC34Cc5c([nH]c6c7c(ccc56)OC(C)(C)CC7=O)C(C)(C)[C@@H]3CC12C(=O)N4 (some centres not stated) | 5.1 µM
C[C@H]1CCN2C[C@]34Cc5c([nH]c6ccccc56)C(C)(C)[C@@H]3C[C@]12C(=O)N4 | > 40 µM
C[C@H]1CCN2C[C@]34C[C@@]5(C(=O)Nc6c5ccc5c6C(=O)CC(C)(C)O5)C(C)(C)[C@@H]3C[C@]12C(=O)N4 | > 40 µM
COC1=N[C@]23CN4CC[C@@](C)(O)[C@]14C[C@H]2C(C)(C)[C@@]1(C3)C(=O)Nc2c1ccc1c2C(=O)CC(C)(C)O1 | > 40 µM
COC1=C(O)C2=C3O[C@H](C)C(C)(C)[C@]3(O)C(=O)c3c(C)cc(O)c(c32)C1=O | > 40 µM
COc1c(O)c2c3c(c1O)C(=O)[C@@]1(O)C(=C3C(C)=C(O)C2=O)O[C@@H](C)C1(C)C | > 40 µM
COc1c(O)c2c3c(c1O)C(=O)[C@@]1(O)C(=C3C(C)=CC2=O)O[C@H](C)C1(C)C | > 40 µM
